Values of other authors in patent US7163956B2, “Substituted fullerene compositions and their use as antioxidants” (C Sixty Inc., priority 2003, dated 2007).

Tested on: mice
Conditions: oral administration, about 0.5 mg/kg/day

(C60(>C(COOH)2)3) [C3]
increase in mean survival relative to controls: ~20%
mean survival (controls 23.5+/−5.5 months, p=0.033): 28.7+/−3.3 months
